Data set [1] deals with HCV genotype 2a (Huh7.5-J6/JFH1). Briefly: microbe, parasite or virus in culture. The conditions noted are these: for EC50: Hepatitis C virus. The text has this: We previously synthesized and characterized twelve DGAT inhibitors with a different DGAT specificity. […] A922500, a commercially available DGAT-1-specific inhibitor was used as a positive control. In spite of a wealth of knowledge on an essential role of DGAT-1 in the HCV particle assembly and production, less attention has been paid to potential functions of DGATs in other steps of the viral life cycle. Therefore, we decided to examine effects of these twelve DGAT inhibitors on HCV particle production as well as RNA genome replication in parallel. For this purpose, we transfected Huh7.5 cells with in vitro-transcribed genotype 2a HCV RNAs (Huh7.5-J6/JFH1) and treated them with each DGAT inhibitor for 6 and 72 h at 10 μM. HCV genome replication as well as host GAPDH RNA levels was quantitated by a real-time RT-PCR analysis. For assessment of HCV particle production, we harvested and filtered the supernatant from Huh7.5-J6/JFH1 cells treated with DGAT inhibitors and incubated the supernatant with naïve huh7.5 cells for 72 h. Then, infectivity was measured by a real-time RT-PCR analysis.
Quantitative real-time RT-PCR analysis to measure levels of HCV RNA and GAPDH was conducted as previously described. The cDNA synthesis and reverse transcription of miR-122 were performed by using Taqman quantitative RT-PCR (qRT-PCR) analysis. Taqmanq RT-PCR components including TaqMan miR122 probe, endogenous control U6 probe, TaqMan® MicroRNA reverse transcription Kit and TaqMan® universal master mix II were purchased from Thermo Fisher Scientific (Waltham, MA, USA)
Huh7.5-J6/JFH-1 cells were seeded into 6-well plates at a density of 3 × 10^5 cells per well with DMEM containing 10% FBS. After 24 h, they are incubated with either DMSO, increasing concentrations of 10j for 3, 6, 12, 24, 48, and 72 h, or increasing concentrations of A922500 for 6, 12, 24, 48, and 72 h. Total RNAs were extracted from treated cells and virus-containing media were harvested at each time point. Naïve Huh7.5 cells were infected with these virus-containing media after concentration with centricons. Total RNAs were extracted from Huh7.5 cells infected with virus-containing media. qRT-PCR analysis was performed to measure effect of 10j on HCV replication and virus particle production.

The test system of the next data set is Huh7.5-J6/JFH1 cells. The experiment in a line: immunofluorescence of NS3 and LD (BODIPY) in Huh7.5-J6/JFH1 cells. Format: cell-based, hepatitis C virus. Particulars: 72 h. On the procedure:
Based on previous results, we noticed that EC50 values required for inhibition of the HCV genome replication by 10j were around 1–2 μM ranges (Figure 2 and Table 3). However, IC50 value required for inhibition of the enzymatic DGAT activities in vitro by 10j was reported to be higher than 5 μM (Table 2 and Figure 6E). Based on these observations, we hypothesized that inhibition of DGATs by 10j may not play a direct role in suppression of the viral genome replication. To test this hypothesis, we decided to study effects of 10j on DGAT and the viral genome replication in a simultaneous manner. […] Then, the viral NS3 protein and LDs were visualized by using an anti-NS3 antibody and BODIPY, respectively. […] Significant reduction of LD was only seen after treatment of 10j higher than 5 μM. In order to confirm this observation, we decided to utilize another HCV-positive cell—JFH1-NS5A-GFP cells—which were infected with infectious HCV genotype 2a particles with a visually tractable NS5A due to the presence of in-frame-fused GFP protein with NS5A. TGs of these cells were stained with ORO for visualization in parallel. […] In accordance with the previous result, reduction of the NS5A-GFP protein preceded decline of TG biosynthesis (Figure 7D).
(§1) Immunofluorescence analysis of Huh7.5-J6/JFH1 or Huh7.5-JFH1-5A-GFP cells in the presence of 10j was conducted as previously described. Fluorescence were examined and captured by Nikon confocal laser scanning microscopic system. LD content was quantified using the ImageJ program.

A further data set has as its system JFH1-NS5A-GFP cells. The experiment in a line: NS5A-GFP and Oil Red O imaging in JFH1-NS5A-GFP cells. Format: cell-based, hepatitis C virus. The conditions noted are these: 72 h, dose-dependent. The protocol: Based on previous results, we noticed that EC50 values required for inhibition of the HCV genome replication by 10j were around 1–2 μM ranges (Figure 2 and Table 3). However, IC50 value required for inhibition of the enzymatic DGAT activities in vitro by 10j was reported to be higher than 5 μM (Table 2 and Figure 6E). Based on these observations, we hypothesized that inhibition of DGATs by 10j may not play a direct role in suppression of the viral genome replication. To test this hypothesis, we decided to study effects of 10j on DGAT and the viral genome replication in a simultaneous manner. […] Then, the viral NS3 protein and LDs were visualized by using an anti-NS3 antibody and BODIPY, respectively. […] Significant reduction of LD was only seen after treatment of 10j higher than 5 μM. In order to confirm this observation, we decided to utilize another HCV-positive cell—JFH1-NS5A-GFP cells—which were infected with infectious HCV genotype 2a particles with a visually tractable NS5A due to the presence of in-frame-fused GFP protein with NS5A. TGs of these cells were stained with ORO for visualization in parallel. […]
as §1

Where two headings read alike, the source gives them in different places.

For `O=C(NCc1ccco1)c1ccc2[nH]c(COc3ccc(C45CC6CC(CC(C6)C4)C5)cc3)nc2c1` [10j, 2-{[4-(adamant-1yl)phenoxy]methyl)-N-(furan-2-ylmethyl)-1H-benzo[d]imidazole-5-carboxamide], the “T1/2, time required for reducing the viral RNAs by half” value in data set [1] (8 μM, genotype 2a) was 35.8 h. Also, the “effect on HCV genome replication” value in data set [1] (10 μM, 72 h (Figure 1C)) was “able to block both viral RNA genome replication and particle production”. Besides, the EC50 in data set [1] (3 h, read-out: EC50 on HCV genome replication) was greater than 10000 nM; in data set [1] (6 h, read-out: EC50 on HCV genome replication), greater than 10000 nM; in data set [1] (12 h, read-out: EC50 on HCV genome replication), 8500 nM; in data set [1] (24 h, read-out: EC50 on HCV genome replication) it was 3000 nM; in data set [1] (48 h, read-out: EC50 on HCV genome replication) it was 3600 nM; in data set [1] (72 h, read-out: EC50 on HCV genome replication), 2700 nM. The EC50 is 1600 nM in data set [1] (GETYPE2A, 72 h, read-out: EC50 HCV RNA, reporter-free infectious clone) and 1000 to 2000 nM in data set [1] (GETYPE2A, read-out: EC50 values required for inhibition of the HCV genome replication (summary)). In the data set on Huh7.5-J6/JFH1 cells, the “concentration at which the viral NS3 protein started to disappear” value came out at 1 µM. In addition, the “concentration for significant reduction of LD” value with Huh7.5-J6/JFH1 cells is recorded as “higher than 5 μM”. The “LD levels (BODIPY)” value in the data set with Huh7.5-J6/JFH1 cells (up to 2 μM) is “stayed unaltered”. Besides, in the data set on JFH1-NS5A-GFP cells, the “concentration at which reduction of NS5A-GFP expression starts” value worked out at 5 µM.

The values are drawn from publication PMC6222871, “Suppression of Hepatitis C Virus Genome Replication and Particle Production by a Novel Diacylglycerol Acyltransferases Inhibitor” (Molecules : A Journal of Synthetic Chemistry and Natural …, 2018).
